Test results taken from ChEMBL document CHEMBL1138904, “2-Aryl(pyrrolidin-4-yl)acetic acids are potent agonists of sphingosine-1-phosphate (S1P) receptors” (Bioorg Med Chem Lett, 2006).
Calls of active or inactive are those of the source. No cut-off for these calls is given here.

Columns and labels:
[1] = Oral bioavailability in Sprague-Dawley rat at 1 mg/kg, iv and 2 mg/kg, po; format: ADME, organism-based; settings: in vivo
[2] = molecular target: Sphingosine 1-phosphate receptor 1 (Homo sapiens, UniProt P21453); test: Displacement of [33P]S1P from human S1P1 receptor expressed in CHO cells; format: cell-based
Sequence of Sphingosine 1-phosphate receptor 1 (P21453 whole entry): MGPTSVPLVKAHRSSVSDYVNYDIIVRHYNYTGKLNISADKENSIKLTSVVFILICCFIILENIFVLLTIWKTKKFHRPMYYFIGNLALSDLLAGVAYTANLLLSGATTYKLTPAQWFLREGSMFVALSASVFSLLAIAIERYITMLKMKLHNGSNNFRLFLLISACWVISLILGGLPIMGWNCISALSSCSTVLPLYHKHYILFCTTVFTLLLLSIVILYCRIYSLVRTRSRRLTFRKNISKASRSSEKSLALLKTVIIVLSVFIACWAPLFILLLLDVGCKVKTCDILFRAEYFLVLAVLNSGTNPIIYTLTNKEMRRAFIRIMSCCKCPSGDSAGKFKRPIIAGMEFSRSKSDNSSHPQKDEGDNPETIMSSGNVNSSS

[3] = molecular target: Sphingosine 1-phosphate receptor 5 (Homo sapiens, UniProt Q9H228); test: Displacement of [33P]S1P from human S1P5 receptor expressed in CHO cells; format: cell-based
Sequence of Sphingosine 1-phosphate receptor 5 (Q9H228 whole entry): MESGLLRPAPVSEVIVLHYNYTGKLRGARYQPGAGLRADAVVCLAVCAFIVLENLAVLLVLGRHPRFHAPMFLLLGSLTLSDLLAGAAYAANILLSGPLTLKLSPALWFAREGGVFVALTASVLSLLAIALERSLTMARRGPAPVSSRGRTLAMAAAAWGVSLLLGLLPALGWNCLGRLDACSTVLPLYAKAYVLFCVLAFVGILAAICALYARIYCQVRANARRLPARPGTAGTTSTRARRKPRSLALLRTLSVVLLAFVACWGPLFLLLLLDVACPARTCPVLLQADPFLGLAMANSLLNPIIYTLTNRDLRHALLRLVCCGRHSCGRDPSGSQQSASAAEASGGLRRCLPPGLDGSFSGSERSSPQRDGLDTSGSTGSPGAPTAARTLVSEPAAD

[4] = molecular target: Sphingosine 1-phosphate receptor 3 (Homo sapiens, UniProt Q99500); test: Displacement of [33P]S1P from human S1P3 receptor expressed in CHO cells; format: cell-based
Sequence of Sphingosine 1-phosphate receptor 3 (Q99500 whole entry): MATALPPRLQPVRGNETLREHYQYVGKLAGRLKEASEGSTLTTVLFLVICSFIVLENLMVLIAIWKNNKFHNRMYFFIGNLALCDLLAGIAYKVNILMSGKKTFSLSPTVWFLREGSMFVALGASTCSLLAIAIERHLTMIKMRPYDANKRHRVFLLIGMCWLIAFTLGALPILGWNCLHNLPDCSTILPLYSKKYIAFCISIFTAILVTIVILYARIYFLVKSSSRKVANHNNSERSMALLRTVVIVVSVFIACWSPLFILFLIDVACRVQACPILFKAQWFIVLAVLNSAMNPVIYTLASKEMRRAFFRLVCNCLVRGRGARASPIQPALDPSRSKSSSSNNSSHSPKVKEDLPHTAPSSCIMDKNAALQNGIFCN

[5] = molecular target: T1, Sphingosine 1-phosphate receptor 4 (Homo sapiens, UniProt O95977); test: Displacement of [33P]S1P from human S1P4 receptor expressed in CHO cells; format: cell-based
T1 sequence (O95977 whole entry): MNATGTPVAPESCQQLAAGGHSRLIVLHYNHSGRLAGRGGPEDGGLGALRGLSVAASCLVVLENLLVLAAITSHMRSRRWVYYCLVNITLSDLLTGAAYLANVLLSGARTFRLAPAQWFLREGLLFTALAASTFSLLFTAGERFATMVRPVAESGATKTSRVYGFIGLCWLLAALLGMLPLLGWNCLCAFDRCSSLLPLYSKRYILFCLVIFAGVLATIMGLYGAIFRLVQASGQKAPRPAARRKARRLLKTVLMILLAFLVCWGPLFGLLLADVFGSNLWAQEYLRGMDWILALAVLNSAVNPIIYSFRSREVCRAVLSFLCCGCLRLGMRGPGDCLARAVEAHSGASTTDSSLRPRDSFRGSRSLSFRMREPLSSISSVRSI

[6] = system: PBL; test: Reduction in peripheral blood lymphocyte count in mouse at 10 mg/kg, po relative to control; format: functional; set-up: scale not given: the % may be the effect or the level left
[7] = molecular target: Sphingosine 1-phosphate receptor 2 (Homo sapiens, UniProt O95136); test: Displacement of [33P]S1P from human S1P2 receptor expressed in CHO cells; format: cell-based
Sequence of Sphingosine 1-phosphate receptor 2 (O95136 whole entry): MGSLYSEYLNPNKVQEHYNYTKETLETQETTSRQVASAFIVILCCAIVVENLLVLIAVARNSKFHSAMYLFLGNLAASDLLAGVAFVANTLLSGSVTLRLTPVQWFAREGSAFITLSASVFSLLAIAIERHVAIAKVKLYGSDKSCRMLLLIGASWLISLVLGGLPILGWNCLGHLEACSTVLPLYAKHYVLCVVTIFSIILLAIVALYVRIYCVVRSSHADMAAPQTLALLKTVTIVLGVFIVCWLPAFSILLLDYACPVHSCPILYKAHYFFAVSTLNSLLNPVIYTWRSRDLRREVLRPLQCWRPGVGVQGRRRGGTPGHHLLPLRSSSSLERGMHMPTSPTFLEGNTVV

[8] = system: PBL; test: […] of peripheral blood lymphocyte in mouse at 1 mg/kg, po; format: functional, organism-based; set-up: dose 1 mg/kg
[9] = Volume of distribution in Sprague-Dawley rat at 1 mg/kg, iv and 2 mg/kg, po; format: ADME, organism-based; settings: in vivo, read-out: Vss
[10] = Clearance in Sprague-Dawley rat at 1 mg/kg, iv and 2 mg/kg, po; format: ADME, organism-based; settings: in vivo
[11] = system: PBL; test: […] of peripheral blood lymphocyte in orally dosed mouse; format: functional, organism-based
[12] = Half life in Sprague-Dawley rat at 1 mg/kg, iv and 2 mg/kg, po; format: ADME, organism-based; settings: in vivo

bioavailability [1] | IC50 [2] | IC50 [3] | IC50 [4] | IC50 [5] | IC50 [7] | Vd [9] | clearance [10] | half-life [12] | IC50 ([7]; cho) | Compound | Activity [6] | Activity [8] | Activity [11]
67% | – | – | – | – | – | – | – | – | – | CC(C)Cc1ccc(-c2nc(-c3ccc(CN4CC(C(=O)O)C4)cc3)no2)cc1 | – | – | –
– | 2.2 nM | 390 nM | 2100 nM | 390 nM | > 10000 nM | – | – | – | – | O=C(O)CC1CNC(c2ccc(OCc3cc(-c4ccccc4)c(C(F)(F)F)s3)cc2)C1 (stereo not given) | 39% | – | –
– | 25 nM | 130 nM | 4800 nM | 2700 nM | > 10000 nM | – | – | – | – | O=C(O)C1CNC(c2ccc(OCc3cc(-c4ccccc4)c(C(F)(F)F)s3)cc2)C1 (stereo not given) | – | – | –
23% | 2 nM | 21 nM | 460 nM | 110 nM | > 10000 nM | 2.2 L/kg | 3.5 mL/min/kg | 4.4 h | – | O=C(O)C[C@@H]1CN[C@@H](c2ccc(-c3noc(-c4ccc(C5CCC(F)(F)CC5)cc4)n3)cc2)C1 (relative stereo) | – | Active | Active
– | 1 nM | 68 nM | > 1000 nM | 120 nM | > 10000 nM | – | – | – | – | O=C(O)C[C@@H]1CN[C@@H](c2ccc(-c3noc(-c4ccc(C5CCCC5)cc4)n3)cc2)C1 (relative stereo) | – | – | –
– | 1.4 nM | 57 nM | 3100 nM | 110 nM | > 10000 nM | – | – | – | – | O=C(O)C[C@@H]1CN[C@@H](c2ccc(-c3noc(-c4ccc(C5CCCCC5)cc4)n3)cc2)C1 (relative stereo) | – | – | Active
27% | 7.9 nM | 140 nM | 1500 nM | 160 nM | > 10000 nM | 2.9 L/kg | 3.4 mL/min/kg | 10.9 h | – | CC(C)Cc1ccc(-c2nc(-c3ccc([C@H]4C[C@@H](CC(=O)O)CN4)cc3)no2)cc1 (relative stereo) | – | – | Active
79% | 5.7 nM | 300 nM | > 1000 nM | 150 nM | > 10000 nM | 6.6 L/kg | 7.4 mL/min/kg | 10.7 h | – | CC(C)Cc1ccc(-c2nc(-c3ccc([C@H]4C[C@H](CC(=O)O)CN4)cc3)no2)cc1 (relative stereo) | – | – | –
– | 5.5 nM | 50 nM | > 1000 nM | 230 nM | > 10000 nM | – | – | – | – | O=C(O)C[C@@H]1CN[C@@H](c2ccc(-c3noc(-c4ccc(CCC(F)(F)F)cc4)n3)cc2)C1 (relative stereo) | – | – | –
– | 1.2 nM | 5.1 nM | 690 nM | 32 nM | – | – | – | – | > 10000 nM | O=C(O)C[C@@H]1CN[C@@H](c2ccc(-c3noc(-c4ccc([C@@H]5CCC(F)(F)C5)cc4)n3)cc2)C1 (stereo in doubt; 22f) [listing 1 of 2 here] | – | – | –
– | – | – | – | – | – | – | – | – | – | O=C(O)C[C@@H]1CN[C@@H](c2ccc(-c3noc(-c4ccc([C@@H]5CCC(F)(F)C5)cc4)n3)cc2)C1 (stereo in doubt; 22f) [listing 2 of 2 here] | – | Active | –
36% | 0.8 nM | 11 nM | 1100 nM | 800 nM | > 10000 nM | 1.3 L/kg | 2.1 mL/min/kg | 5.6 h | – | O=C(O)C[C@@H]1CN[C@@H](c2ccc(-c3noc(-c4ccc([C@@H]5CCC(F)(F)C5)cc4)n3)cc2)C1 (stereo in doubt; 22g) [listing 1 of 2 here] | – | – | –
– | – | – | – | – | – | – | – | – | – | O=C(O)C[C@@H]1CN[C@@H](c2ccc(-c3noc(-c4ccc([C@@H]5CCC(F)(F)C5)cc4)n3)cc2)C1 (stereo in doubt; 22g) [listing 2 of 2 here] | – | Active | Active
